Experimental data from patent US20070141673A1, “Tool for quantitative real-time analysis of viral gene expression dynamics in single living cells” (priority 2005, published 2007).

How the values were obtained:
[1] = tested on: HIV-1 VSV-G pseudotype (NL4.3-luc) in MDM cells; type: cell-based
[2] = tested on: HIV-1 VSV-G pseudotype (NL4.3-luc) in MDM cells; type: cell-based; remark: listed apart in the source
[3] = tested on: HIV-1 VSV-G pseudotype (NL4.3-luc) in MDM cells; type: cell-based; remark: listed apart in the source
[4] = tested on: HIV-1 VSV-G pseudotype (NL4.3-luc) in CD4 T cells; type: cell-based
[5] = tested on: CD4 T cells; assay: Flow-cytometry analysis of activation markers CD25 and CD69; type: cell-based, human; settings: PHA treatment during three days before infection

O=C(O)C(=O)CC(=O)c1cccn1Cc1ccc(F)cc1 [L-731,988]
luciferase activity in cell lysates [1]: reduced in a dose-dependent manner
number of cells emitting bioluminescence [2]: reduction in the number of cells emitting bioluminescence
number of photons emitted per individual cell [2]: significant reduction in the number of photons emitted per individual cell
overall averaged bioluminescence intensity [2]: decreased

CCCCCCCCCCCCCC(=O)O[C@@H]1[C@@H](C)[C@@]2(O)[C@@H](C=C(CO)C[C@]3(O)C(=O)C(C)=C[C@@H]23)[C@@H]2C(C)(C)[C@]12OC(C)=O [PMA, phorbol 12-myristate 13-acetate]
time after stimulation at which bioluminescence signal began to increase [3]: 4 h

phytohemagglutinin [PHA]
duration of increase of photon emission until stable plateau level [4]: 4 h
positive lymphocytes (bioluminescence) in cells treated before infection [4]: abundant numbers of positive lymphocytes
time after mitogen stimulation at which photon emission began to be detected in formerly negative cells [4]: 8 h
global activation of CD4 T cells [5]: > 98%
